Here are results for 20 compounds from patent US9938273B2 (Plexxikon Inc., priority 2015, dated 2018).

The target in this assay is T1, c-KIT (Homo sapiens, UniProt P10721).
T1 construct: purchased Millipore 14-559K
Briefly: AlphaScreen kinase assay with recombinant enzyme, c-KIT. The assay is classed as biochemical. The following applies: 100ATP, 8pt, GMean. On the procedure: In order to determine the effect of compounds on FLT3 catalytic activity, kinase assays using recombinant enzymes and AlphaScreen® technology have been established. The catalytic activity of c-kit activity was also measured to determine selectivity of the compounds. When the kinases are catalytically active, they phosphorylate a biotinylated peptide substrate on tyrosine residues. Using AlphaScreen® technology, the ability of the compounds to affect the catalytic activity of the kinases can be measured quantitatively. The peptide substrate is immobilized by the AlphaScreen® Streptavidin Donor beads and, upon phosphorylation by a tyrosine kinase, can bind to AlphaScreen® Anti-Phosphotyrosine (PY20) Acceptor beads. Upon excitation of these beads with laser light at 680 nm, singlet oxygen is produced. This singlet oxygen is rapidly quenched, unless the AlphaScreen® Anti-Phosphotyrosine (PY20) Acceptor beads are in close proximity, in which case a proximity signal can be measured at 580 nm. In the presence of catalytic activity, there is a very strong proximity signal. Selective kinase inhibitors affect a decrease in this proximity signal through a decrease in tyrosine phosphorylation of the peptide substrate.
The assay was performed as summarized below.
Poly (Glu4-Tyr) Peptide, biotin conjugate [Biotin-GG(EEEEY)10EE] (SEQ ID NO: 4)
Final concentration=30 nM
Final concentration for IC50 determination=10 μM (FLT3-D835Y or FLT3-ITD) or 100 μM (c-KIT)
AlphaScreen® Phosphotyrosine (PY20) Assay Kit
Final concentration=10 μg/mL
Dilute compounds in DMSO to 20× final concentration.
Add 1 μl of compound to each well of 384 well reaction plate (Perkin Elmer #6005359).
Mix enzyme and Poly (Glu4-Tyr) Peptide substrate at 1.33× final concentration in assay buffer.
Mix ATP at 5× final concentration in assay buffer.
Add 15 μL enzyme/substrate mixture to the reaction plate.
Add 4 μL of ATP to the reaction plate.
Mix Streptavidin Donor beads at 6× final concentration in Stop/Detection buffer.
Add 5 μL Streptavidin Donor beads to the reaction plate. Centrifuge 1 minute, shake to mix, and incubate at room temperature for 20 minutes.
Mix Anti-Phosphotyrosine (PY20) Acceptor beads at 6× final concentration in Stop/Detection buffer.
Add 5 μL Anti-Phosphotyrosine (PY20) beads to the reaction plate.
Centrifuge 1 minute, shake to mix, and incubate at room temperature for 60 minutes.
Read plate on Wallac EnVision™ 2103 Multilabel Reader.
(In Alpha technology, singlet oxygen from a donor bead excites a nearby acceptor bead.)

T1 sequence (P10721 26-976): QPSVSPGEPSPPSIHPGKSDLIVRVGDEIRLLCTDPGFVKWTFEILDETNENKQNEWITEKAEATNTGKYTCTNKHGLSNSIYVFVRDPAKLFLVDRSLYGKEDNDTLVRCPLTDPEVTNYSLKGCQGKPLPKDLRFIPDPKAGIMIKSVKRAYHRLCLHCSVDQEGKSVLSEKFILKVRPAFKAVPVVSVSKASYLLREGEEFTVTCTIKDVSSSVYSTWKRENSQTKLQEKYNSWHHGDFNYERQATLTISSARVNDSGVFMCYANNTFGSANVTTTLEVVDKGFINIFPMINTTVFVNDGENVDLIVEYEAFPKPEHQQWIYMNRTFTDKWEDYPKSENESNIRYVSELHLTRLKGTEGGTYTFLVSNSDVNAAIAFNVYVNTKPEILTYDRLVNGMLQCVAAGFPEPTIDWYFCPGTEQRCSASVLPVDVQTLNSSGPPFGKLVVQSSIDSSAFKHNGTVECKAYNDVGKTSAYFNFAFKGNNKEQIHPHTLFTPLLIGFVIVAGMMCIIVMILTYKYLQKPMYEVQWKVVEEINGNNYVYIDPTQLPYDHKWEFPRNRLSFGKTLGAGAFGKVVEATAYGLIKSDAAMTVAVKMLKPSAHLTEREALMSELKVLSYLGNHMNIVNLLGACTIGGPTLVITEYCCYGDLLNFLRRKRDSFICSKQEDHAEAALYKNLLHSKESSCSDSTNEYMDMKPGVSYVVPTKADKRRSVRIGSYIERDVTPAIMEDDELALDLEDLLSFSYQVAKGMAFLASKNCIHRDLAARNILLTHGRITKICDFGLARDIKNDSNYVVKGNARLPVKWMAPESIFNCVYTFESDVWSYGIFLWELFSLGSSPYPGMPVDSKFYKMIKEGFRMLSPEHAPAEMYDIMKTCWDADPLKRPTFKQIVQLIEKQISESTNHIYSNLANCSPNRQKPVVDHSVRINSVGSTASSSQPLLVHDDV

Take `O=C(c1cccc(-c2cnc3[nH]c(-c4ccccc4)cc3c2)n1)N1CCC(F)(F)C1` [Compound P-0093, (3,3-difluoropyrrolidin-1-yl)-[6-(2-phenyl-1H-pyrrolo[2,3-b]pyridin-5-yl)-2-pyridyl]methanone]: the IC50 was in the range of 50 to 100 µM.
The value for `COC1CCN(C(=O)c2cccc(-c3cnc4[nH]c(-c5ccccc5)cc4c3)n2)C1` (centres unmarked) [Compound P-0095, (3-methoxypyrrolidin-1-yl)-[6-(2-phenyl-1H-pyrrolo[2,3-b]pyridin-5-yl)-2-pyridyl]methanone] was 10 to 50 µM; that for `CNC(=O)C1CCN(C(=O)c2cccc(-c3cnc4[nH]c(-c5ccccc5)cc4c3)n2)C1` (centres unmarked) [Compound P-0096, N-methyl-1-[6-(2-phenyl-1H-pyrrolo[2,3-b]pyridin-5-yl)pyridine-2-carbonyl]pyrrolidine-3-carboxamide] was 10 to 50 µM.
Then `O=C(c1cccc(-c2cnc3[nH]c(-c4ccccc4)cc3c2)n1)N1CCC(n2ccnc2)C1` (centres unmarked) [Compound P-0097, (3-imidazol-1-ylpyrrolidin-1-yl)-[6-(2-phenyl-1H-pyrrolo[2,3-b]pyridin-5-yl)-2-pyridyl]methanone], with 0.0001 to 10 µM; and `N#CCCNC(=O)c1cccc(-c2cnc3[nH]c(-c4ccccc4)cc3c2)n1` [Compound P-0099, N-(2-cyanoethyl)-6-(2-phenyl-1H-pyrrolo[2,3-b]pyridin-5-yl)pyridine-2-carboxamide], with 50 to 100 µM; and `CC(C)(C#N)CNC(=O)c1cccc(-c2cnc3[nH]c(-c4ccccc4)cc3c2)n1` [Compound P-0100, N-(2-cyano-2-methyl-propyl)-6-(2-phenyl-1H-pyrrolo[2,3-b]pyridin-5-yl)pyridine-2-carboxamide], with 10 to 50 µM.
The value for `N#CC1CCN(C(=O)c2cccc(-c3cnc4[nH]c(-c5ccccc5)cc4c3)n2)C1` (centres unmarked) [Compound P-0105, 1-[6-(2-phenyl-1H-pyrrolo[2,3-b]pyridin-5-yl)pyridine-2-carbonyl]pyrrolidine-3-carbonitrile] was 10 to 50 µM.
Turning to `CN[C@@H]1CCN(C(=O)c2ccc(-c3cnc4[nH]c(-c5ccccc5)cc4c3)s2)C1` [Compound P-0106, [(3R)-3-(methylamino)pyrrolidin-1-yl]-[5-(2-phenyl-1H-pyrrolo[2,3-b]pyridin-5-yl)-2-thienyl]methanone], the IC50 is 0.0001 to 10 µM.
The value for `CS(=O)(=O)N1CCC(NS(=O)(=O)c2cccc(-c3cnc4[nH]c(-c5ccccc5)cc4c3)n2)C1` (centres unmarked) [Compound P-0107, N-(1-methylsulfonylpyrrolidin-3-yl)-6-(2-phenyl-1H-pyrrolo[2,3-b]pyridin-5-yl)pyridine-2-sulfonamide] was 50 to 100 µM; that for `O=S(=O)(NC1CC1)c1cccc(-c2cnc3[nH]c(-c4ccccc4)cc3c2)n1` [Compound P-0109, N-cyclopropyl-6-(2-phenyl-1H-pyrrolo[2,3-b]pyridin-5-yl)pyridine-2-sulfonamide] was 50 to 100 µM.
`O=C(c1cccc(-c2cnc3[nH]c(-c4cnn(CC(F)(F)F)c4)cc3c2)n1)N1CCC(F)(F)C1` [Compound P-0112, (3,3-difluoropyrrolidin-1-yl)-[6-[2-[1-(2,2,2-trifluoroethyl)pyrazol-4-yl]-1H-pyrrolo[2,3-b]pyridin-5-yl]-2-pyridyl]methanone]: the IC50 was 10 to 50 µM.
The value for `CC(C)(C#N)CNC(=O)c1cccc(-c2cnc3[nH]c(-c4cnn(CC(F)(F)F)c4)cc3c2)n1` [Compound P-0113, N-(2-cyano-2-methyl-propyl)-6-[2-[1-(2,2,2-trifluoroethyl)pyrazol-4-yl]-1H-pyrrolo[2,3-b]pyridin-5-yl]pyridine-2-carboxamide] was 0.0001 to 10 µM; that for `N#CC1(NC(=O)c2cccc(-c3cnc4[nH]c(-c5ccccc5)cc4c3)n2)CCC1` [Compound P-0114, N-(1-cyanocyclobutyl)-6-(2-phenyl-1H-pyrrolo[2,3-b]pyridin-5-yl)pyridine-2-carboxamide] was 50 to 100 µM; that for `N#CC1(F)CCN(C(=O)c2cccc(-c3cnc4[nH]c(-c5ccccc5)cc4c3)n2)C1` (centres unmarked) [Compound P-0115, 3-fluoro-1-[6-(2-phenyl-1H-pyrrolo[2,3-b]pyridin-5-yl)pyridine-2-carbonyl]pyrrolidine-3-carbonitrile] was 50 to 100 µM.
As to `N#C[C@H]1CCN(C(=O)c2cccc(-c3cnc4[nH]c(-c5ccccc5)cc4c3)n2)C1` [Compound P-0117, (3S)-1-[6-(2-phenyl-1H-pyrrolo[2,3-b]pyridin-5-yl)pyridine-2-carbonyl]pyrrolidine-3-carbonitrile], the IC50 was in the range of 0.0001 to 10 µM.
Turning to `CC(C)(C#N)NC(=O)c1cccc(-c2cnc3[nH]c(-c4ccccc4)cc3c2)n1` [Compound P-0118, N-(1-cyano-1-methyl-ethyl)-6-(2-phenyl-1H-pyrrolo[2,3-b]pyridin-5-yl)pyridine-2-carboxamide], the IC50 is 50 to 100 µM.
The value for `CN(CCC#N)C(=O)c1cccc(-c2cnc3[nH]c(-c4ccccc4)cc3c2)n1` [Compound P-0119, N-(2-cyanoethyl)-N-methyl-6-(2-phenyl-1H-pyrrolo[2,3-b]pyridin-5-yl)pyridine-2-carboxamide] was 50 to 100 µM.
With `N#CC1CCN(C(=O)c2cccc(-c3cnc4[nH]c(C5=CCCCC5)cc4c3)n2)C1` (centres unmarked) [Compound P-0120, 1-[6-[2-(cyclohexen-1-yl)-1H-pyrrolo[2,3-b]pyridin-5-yl]pyridine-2-carbonyl]pyrrolidine-3-carbonitrile], the IC50 is 0.0001 to 10 µM.
The value for `CC(C)(C#N)CNC(=O)c1cccc(-c2cnc3[nH]c(C4=CCCCC4)cc3c2)n1` [Compound P-0123, N-(2-cyano-2-methyl-propyl)-6-[2-(cyclohexen-1-yl)-1H-pyrrolo[2,3-b]pyridin-5-yl]pyridine-2-carboxamide] was 0.0001 to 10 µM; that for `CC(C)(C#N)NC(=O)c1cccc(-c2cnc3[nH]c(-c4cnn(C(F)F)c4)cc3c2)n1` [Compound P-0164, N-(2-cyanopropan-2-yl)-6-(2-(1-(difluoromethyl)-1H-pyrazol-4-yl)-1H-pyrrolo[2,3-b]pyridin-5-yl)picolinamide] was 50 to 100 µM.

As a reminder, the IC50 is the concentration that gives 50% inhibition.
